Measurements as given in patent publication US9771352B2, “Hydroxyalkyl-substituted phenyltriazole derivatives and uses thereof” (BAYER PHARMA AKTIENGESELLSCHAFT, priority 2014, dated 2017).

Tests used:
human V1a receptor = biological target: T1, human V1a receptor (Homo sapiens, UniProt P37288); test: Cellular in vitro assay for determining vasopressin receptor activity, V1a receptor cell line (photoprotein luminescence); assay type: cell-based; conditions: CHO cell line transfected with human V1a receptor; [Arg8]-vasopressin at EC50; compounds of the invention (Table 1A); read-out: IC50 hV1a
T1 construct: expressed in transfected cells; host or cells: CHO K1 (ATCC), also stably transfected with modified aequorin
T1 sequence (P37288 whole entry): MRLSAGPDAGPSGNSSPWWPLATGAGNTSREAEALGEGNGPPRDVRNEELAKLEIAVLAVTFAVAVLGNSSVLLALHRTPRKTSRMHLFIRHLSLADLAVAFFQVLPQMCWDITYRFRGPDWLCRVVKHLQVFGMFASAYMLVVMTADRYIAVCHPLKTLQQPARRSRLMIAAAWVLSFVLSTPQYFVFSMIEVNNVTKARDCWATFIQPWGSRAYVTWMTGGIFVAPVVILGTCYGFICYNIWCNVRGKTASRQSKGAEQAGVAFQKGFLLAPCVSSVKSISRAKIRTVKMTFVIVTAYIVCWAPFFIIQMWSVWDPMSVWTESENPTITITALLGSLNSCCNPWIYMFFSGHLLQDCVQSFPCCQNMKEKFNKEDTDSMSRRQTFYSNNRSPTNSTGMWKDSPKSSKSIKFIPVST

human V2 receptor = biological target: T2, human V2 receptor (Homo sapiens, UniProt P30518); test: Cellular in vitro assay for determining vasopressin receptor activity, V2 receptor cell line (CRE-luciferase); assay type: cell-based; conditions: CHO cell line transfected with human V2 receptor; [Arg8]-vasopressin at EC50; compounds of the invention (Table 1A); read-out: IC50 hV2
T2 construct: expressed in transfected cells; host or cells: CHO K1 (ATCC) expressing firefly luciferase under a CRE-responsive promoter
T2 sequence (P30518 whole entry): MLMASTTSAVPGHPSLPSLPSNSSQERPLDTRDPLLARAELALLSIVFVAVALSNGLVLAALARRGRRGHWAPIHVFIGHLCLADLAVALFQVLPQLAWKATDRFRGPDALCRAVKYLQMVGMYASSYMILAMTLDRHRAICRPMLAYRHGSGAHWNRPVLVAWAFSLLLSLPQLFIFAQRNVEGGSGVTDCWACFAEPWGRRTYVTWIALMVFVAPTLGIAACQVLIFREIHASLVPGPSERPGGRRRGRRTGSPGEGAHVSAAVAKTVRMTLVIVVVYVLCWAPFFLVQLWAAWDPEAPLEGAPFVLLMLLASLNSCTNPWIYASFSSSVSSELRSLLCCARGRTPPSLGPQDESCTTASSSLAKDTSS
Summary of the method: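 CHO K1 cells stably expressing human V2 receptor with CRE-driven firefly luciferase, plated the day before in DMEM/F12 with 2% FCS at 37° C. Receptor activation raises cAMP and luciferase expression; after Triton lysis and luciferin addition, luminescence is read and IC50 values derived.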

conscious rats = test: Diuresis investigations in conscious rats kept in metabolism cages; assay type: in vivo, Wistar rats; conditions: Rattus norvegicus, po, read-out: Urinary volume; for response vs control in vivo at 0.3 mg/kg: dosage p.o. 0.3 mg/kg (Table 2A); for response vs control in vivo at 1 mg/kg: dosage p.o. 1.0 mg/kg (Table 2A); for response vs control in vivo at 3 mg/kg: dosage p.o. 3.0 mg/kg (Table 2A)
Experimental: Wistar rats (220-450 g body weight) are kept with free access to feed (Altromin) and drinking water. During the experiment, the animals are kept with free access to drinking water for 4 to 8 or up to 24 hours individually in metabolism cages suitable for rats of this weight class (Tecniplast Deutschland GmbH, D-82383 HohenpeiBenberg). At the beginning of the experiment, the animals are administered the test substance in a volume of 1 to 3 ml/kg body weight of a suitable solvent by means of gavage into the stomach. Control animals only receive solvent. Controls and substance tests are carried out in parallel on the same day. Control groups and substance-dose groups each consist of 4 to 8 animals. During the experiment, the urine excreted by the animals is collected continuously in a receiver at the base of the cage. The volume of urine per time unit is determined separately for each animal, and the concentration of urinary electrolytes is measured by standard methods of flame photometry. Before the beginning of the experiment, the body weight of the individual animals is determined.

| Compound | IC50 (human V1a receptor) | IC50 (human V2 receptor) | response vs control in vivo at 0.3 mg/kg (conscious rats) | response vs control in vivo at 1 mg/kg (conscious rats) | response vs control in vivo at 3 mg/kg (conscious rats) |
| --- | --- | --- | --- | --- | --- |
| Cc1cccc(-n2nc(Cn3nc(-c4ccc(Cl)cc4)n(C[C@H](O)C(F)(F)F)c3=O)nc2C(C)O)c1 (single isomer, unassigned) [Example 29] | 2.9 nM | 0.2 nM | 404% | 983% | – |
| CC(O)c1nc(Cn2nc(-c3ccc(Cl)cc3)n(C[C@H](O)C(F)(F)F)c2=O)nn1-c1cc(F)cc(Cl)c1 (single isomer, unassigned) [Example 14] | 1.3 nM | 0.4 nM | – | 753% | – |
| CC(O)c1nc(Cn2nc(-c3ccc(Cl)cc3)n(C[C@H](O)C(F)(F)F)c2=O)nn1-c1cc(F)cc(Cl)c1 (single isomer, unassigned) [Example 15] | 38.4 nM | 4.1 nM | 412% | – | – |
| C[C@H](O)c1nc(Cn2nc(-c3ccc(Cl)cc3)n(C[C@H](O)C(F)(F)F)c2=O)nn1-c1ccccc1Cl [Example 82, 5-(4-Chlorophenyl)-2-({1-(2-chlorophenyl)-5-[(1S)-1-hydroxyethyl]-1H-1,2,4-triazol-3-yl}-methyl)-4-[(2S)-3,3,3-trifluoro-2-hydroxypropyl]-2,4-dihydro-3H-1,2,4-triazol-3-one] | 0.7 nM | 2.3 nM | 220% | – | 828% |
| C[C@@H](O)c1nc(Cn2nc(-c3ccc(Cl)cc3)n(C[C@H](O)C(F)(F)F)c2=O)nn1-c1ccccc1Cl [Example 83, 5-(4-Chlorophenyl)-2-({1-(2-chlorophenyl)-5-[(1R)-1-hydroxyethyl]-1H-1,2,4-triazol-3-yl}-methyl)-4-[(2S)-3,3,3-trifluoro-2-hydroxypropyl]-2,4-dihydro-3H-1,2,4-triazol-3-one] | 1 nM | 6.7 nM | 279% | – | – |
| Cc1ccccc1-n1nc(Cn2nc(-c3ccc(Cl)cc3)n(C[C@H](O)C(F)(F)F)c2=O)nc1CO [Example 5, 5-(4-Chlorophenyl)-2-{[5-(hydroxymethyl)-1-(2-methylphenyl)-1H-1,2,4-triazol-3-yl]methyl}-4-[(2S)-3,3,3-trifluoro-2-hydroxypropyl]-2,4-dihydro-3H-1,2,4-triazol-3-one] | 0.4 nM | 1.8 nM | 166% | 438% | – |
| Cc1ccccc1-n1nc(Cn2nc(-c3ccc(Cl)cc3)n(C[C@H](O)C(F)(F)F)c2=O)nc1C(C)O (single isomer, unassigned) [Example 70] | 0.5 nM | 1.1 nM | 139% | – | 595% |
| O=c1n(Cc2nc(CO)n(-c3cc(F)cc(Cl)c3)n2)nc(-c2ccc(Cl)cc2)n1C[C@H](O)C(F)(F)F [Example 6, 2-{[1-(3-Chloro-5-fluorophenyl)-5-(hydroxymethyl)-1H-1,2,4-triazol-3-yl]methyl}-5-(4-chlorophenyl)-4-[(2S)-3,3,3-trifluoro-2-hydroxypropyl]-2,4-dihydro-3H-1,2,4-triazol-3-one] | 10.6 nM | 1.7 nM | 132% | 439% | – |
| CC(O)c1nc(Cn2nc(-c3ccc(Cl)cc3)n(C[C@H](O)C(F)(F)F)c2=O)nn1-c1ccccc1 (single isomer, unassigned) [Example 17] | 2.7 nM | 3.4 nM | 404% | 819% | – |
| O=c1n(Cc2nc(CO)n(-c3ccccc3Cl)n2)nc(-c2ccc(Cl)cc2)n1C[C@H](O)C(F)(F)F [Example 4, 5-(4-Chlorophenyl)-2-{[1-(2-chlorophenyl)-5-(hydroxymethyl)-1H-1,2,4-triazol-3-yl]methyl}-4-[(2S)-3,3,3-trifluoro-2-hydroxypropyl]-2,4-dihydro-3H-1,2,4-triazol-3-one] | 0.4 nM | 5.3 nM | 91% | 190% | – |
| O=c1n(Cc2nc(CO)n(-c3cccc(Cl)c3)n2)nc(-c2ccc(Cl)cc2)n1C[C@H](O)C(F)(F)F [Example 1, 5-(4-Chlorophenyl)-2-{[1-(3-chlorophenyl)-5-(hydroxymethyl)-1H-1,2,4-triazol-3-yl]methyl}-4-[(2S)-3,3,3-trifluoro-2-hydroxypropyl]-2,4-dihydro-3H-1,2,4-triazol-3-one] | 6 nM | 2.5 nM | 194% | – | 588% |
| CC(O)c1nc(Cn2nc(-c3ccc(Cl)cc3)n(C[C@H](O)C(F)(F)F)c2=O)nn1-c1cc(Cl)ccc1Cl (mixture of isomers) [Example 49, 5-(4-Chlorophenyl)-2-({1-(2,5-dichlorophenyl)-5-[(1RS)-1-hydroxyethyl]-1H-1,2,4-triazol-3-yl}-methyl)-4-[(2S)-3,3,3-trifluoro-2-hydroxypropyl]-2,4-dihydro-3H-1,2,4-triazol-3-one] | 1.8 nM | 12.6 nM | – | – | – |
| CC(O)c1nc(Cn2nc(-c3ccc(Cl)cc3)n(C[C@H](O)C(F)(F)F)c2=O)nn1-c1cc(F)cc(F)c1 (mixture of isomers) [Example 25, 5-(4-Chlorophenyl)-2-({1-(3,5-difluorophenyl)-5-[(1RS)-1-hydroxyethyl]-1H-1,2,4-triazol-3-yl}-methyl)-4-[(2S)-3,3,3-trifluoro-2-hydroxypropyl]-2,4-dihydro-3H-1,2,4-triazol-3-one] | 7.2 nM | 3.6 nM | – | – | – |
| CC(O)c1nc(Cn2nc(-c3ccc(Cl)cc3)n(C[C@H](O)C(F)(F)F)c2=O)nn1-c1ccccc1 (mixture of isomers) [Example 16, 5-(4-Chlorophenyl)-2-({5-[(1RS)-1-hydroxyethyl]-1-phenyl-1H-1,2,4-triazol-3-yl}methyl)-4-[(2S)-3,3,3-trifluoro-2-hydroxypropyl]-2,4-dihydro-3H-1,2,4-triazol-3-one] | 3.1 nM | 6 nM | – | – | – |
| COc1ccccc1-n1nc(Cn2nc(-c3ccc(Cl)cc3)n(C[C@H](O)C(F)(F)F)c2=O)nc1CO [Example 3, 5-(4-Chlorophenyl)-2-{[5-(hydroxymethyl)-1-(2-methoxyphenyl)-1H-1,2,4-triazol-3-yl]methyl}-4-[(2S)-3,3,3-trifluoro-2-hydroxypropyl]-2,4-dihydro-3H-1,2,4-triazol-3-one] | 1 nM | 5.6 nM | 89% | – | 450% |
| O=c1n(Cc2nc(CO)n(-c3cccc(F)c3)n2)nc(-c2ccc(Cl)cc2)n1C[C@H](O)C(F)(F)F [Example 2, 5-(4-Chlorophenyl)-2-{[1-(3-fluorophenyl)-5-(hydroxymethyl)-1H-1,2,4-triazol-3-yl]methyl}-4-[(2S)-3,3,3-trifluoro-2-hydroxypropyl]-2,4-dihydro-3H-1,2,4-triazol-3-one] | 5 nM | 8.7 nM | 194% | – | 588% |
| CC(O)c1nc(Cn2nc(-c3ccc(Cl)cc3)n(C[C@H](O)C(F)(F)F)c2=O)nn1-c1cccc(C(F)(F)F)c1 (mixture of isomers) [Example 22, 5-(4-Chlorophenyl)-2-({5-[(1RS)-1-hydroxyethyl]-1-[3-(trifluoromethyl)phenyl]-1H-1,2,4-triazol-3-yl}methyl)-4-[(2S)-3,3,3-trifluoro-2-hydroxypropyl]-2,4-dihydro-3H-1,2,4-triazol-3-one] | 24.4 nM | 2.3 nM | – | – | – |
| C[C@H](O)c1nc(Cn2nc(-c3ccc(Cl)cc3)n(C[C@H](O)C(F)(F)F)c2=O)nn1-c1cccc(F)c1 [Example 76, 5-(4-Chlorophenyl)-2-({1-(3-fluorophenyl)-5-[(1S)-1-hydroxyethyl]-1H-1,2,4-triazol-3-yl}-methyl)-4-[(2S)-3,3,3-trifluoro-2-hydroxypropyl]-2,4-dihydro-3H-1,2,4-triazol-3-one] | 2.5 nM | 5.1 nM | 350% | – | – |
| C[C@H](O)c1nc(Cn2nc(-c3ccc(Cl)cc3)n(C[C@H](O)C(F)(F)F)c2=O)nn1-c1cccc(Cl)c1 [Example 79, 5-(4-Chlorophenyl)-2-({1-(3-chlorophenyl)-5-[(1S)-1-hydroxyethyl]-1H-1,2,4-triazol-3-yl}-methyl)-4-[(2S)-3,3,3-trifluoro-2-hydroxypropyl]-2,4-dihydro-3H-1,2,4-triazol-3-one] | 3.6 nM | 1.7 nM | 612% | – | – |
